One assay deals with T1, Human HDAC1 (Homo sapiens, UniProt Q13547).
T1 construct: full length with C-terminal His-tag and C-terminal FLAG-tag; His (C); FLAG (C); host or cells: baculovirus expression system
Put plainly: HDAC1 biochemical assay, AMC-labeled peptide substrate. The following applies: read-out: HDAC Isoform IC50 (nM) 1. Put shortly: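 Two-step fluorogenic read: HDAC1 deacetylates 50 μM acetyl-lysine AMC peptide RHKK(Ac)AMC for 1 h at 30° C (pH 8.0, 1% DMSO, with compound), then developer digests the product for fluorescence at Ex/Em 360/460. Enzyme is full-length human, His/FLAG-tagged, insect-cell expressed, at 0.3 ng/ul.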

A further assay concerns the target T2, Human HDAC8 (Homo sapiens, UniProt Q9BY41).
T2 construct: full length with C-terminal His tag, MW=42.6 kDa; His (C); host or cells: baculovirus expression system
T2 sequence (Q9BY41 1-377): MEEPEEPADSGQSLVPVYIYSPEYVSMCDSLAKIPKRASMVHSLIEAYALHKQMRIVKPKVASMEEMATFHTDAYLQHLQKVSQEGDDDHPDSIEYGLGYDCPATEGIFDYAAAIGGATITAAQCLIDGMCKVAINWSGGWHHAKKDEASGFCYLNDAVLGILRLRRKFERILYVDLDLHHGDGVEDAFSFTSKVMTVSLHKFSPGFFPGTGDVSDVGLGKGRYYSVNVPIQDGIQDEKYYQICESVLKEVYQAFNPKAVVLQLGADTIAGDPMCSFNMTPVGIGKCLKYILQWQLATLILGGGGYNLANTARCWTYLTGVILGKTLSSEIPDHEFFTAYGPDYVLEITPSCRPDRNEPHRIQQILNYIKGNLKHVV
Put plainly: HDAC8 biochemical assay, AMC-labeled peptide substrate. As to conditions: read-out: HDAC Isoform IC50 (nM) 8. Put shortly: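 Two-step fluorogenic readout: compounds and enzyme deacetylate 100 µM RHK(Ac)K(Ac)AMC for 2 h at 30° C (pH8.0 Tris buffer, BSA, 1% DMSO final), then developer releases AMC, read at 360/460 Ex/Em. Enzyme: 1 ng/ul full-length His-tagged human HDAC8 from baculovirus.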

Another assay concerns the target T3, Human HDAC2 (Homo sapiens, UniProt Q92769).
T3 construct: full length with C-terminal GST-tag; GST (C); host or cells: baculovirus expression system
Put plainly: HDAC2 biochemical assay, AMC-labeled peptide substrate. As to conditions: read-out: HDAC Isoform IC50 (nM) 2. Put shortly: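 Full-length human HDAC2 with C-terminal GST tag, baculovirus-expressed, at 0.07 ng/ul with 50 μM RHKK(Ac)AMC substrate in Tris-HCl pH8.0 buffer with BSA, 1% DMSO final. Incubated 1 hour at 30° C with compounds, then developer added; fluorescence read at 360/460 Ex/Em.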

The next assay concerns the target T4, Human HDAC5 (Homo sapiens, UniProt Q9UQL6).
T4 construct: full length with C-terminal His tag, MW=51.1 kDa; His (C); host or cells: baculovirus expression system
Put plainly: HDAC5 biochemical assay, class IIa-specific substrate. As to conditions: read-out: HDAC Isoform IC50 (nM) 5. Put shortly: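 Two-step fluorogenic read-out: deacetylated trifluoroacetyl-lysine AMC substrate (50 μM) digested by developer, measured at Ex/Em 360/460. Deacetylation step: 0.05 ng/ul His-tagged full-length baculoviral enzyme with compound, 30 min, room temperature, pH 8.0 Tris with 1 mg/mL BSA and 1% DMSO.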

For a further assay, the target named is T5, Human HDAC7 (Homo sapiens, UniProt Q8WUI4).
T5 construct: (a.a. 518-end) with N-terminal GST tag; GST (N); host or cells: baculovirus expression system
T5 sequence (Q8WUI4 518-952 limits assumed): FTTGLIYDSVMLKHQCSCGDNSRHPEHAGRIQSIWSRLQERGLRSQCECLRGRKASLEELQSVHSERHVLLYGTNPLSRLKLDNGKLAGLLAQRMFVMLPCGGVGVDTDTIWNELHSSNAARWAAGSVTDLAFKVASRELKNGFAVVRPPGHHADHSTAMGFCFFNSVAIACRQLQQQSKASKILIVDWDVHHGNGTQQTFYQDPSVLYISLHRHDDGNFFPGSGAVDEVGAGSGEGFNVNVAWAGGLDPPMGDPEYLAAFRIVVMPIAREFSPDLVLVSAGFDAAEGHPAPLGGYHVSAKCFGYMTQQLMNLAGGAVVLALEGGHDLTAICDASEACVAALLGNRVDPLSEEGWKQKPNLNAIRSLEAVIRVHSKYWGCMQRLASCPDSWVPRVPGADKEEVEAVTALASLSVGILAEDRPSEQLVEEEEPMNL
Put plainly: HDAC7 biochemical assay, class IIa-specific substrate. The following applies: read-out: HDAC Isoform IC50 (nM) 7. Put shortly: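 Two-step fluorogenic readout: class IIa-selective trifluoroacetyl-lysine AMC substrate (50 μM) deacetylated by N-terminal GST-HDAC7 fragment (0.001 ng/ul), then digested by developer, Ex/Em 360/460. Reaction: 30 min, room temperature, Tris-HCl pH 8.0, NaCl/KCl/MgCl2, 1 mg/mL BSA, 1% DMSO.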

What is called IC50 is the midpoint of a concentration-inhibition curve.

T4 sequence (Q9UQL6 656-1122 limits assumed): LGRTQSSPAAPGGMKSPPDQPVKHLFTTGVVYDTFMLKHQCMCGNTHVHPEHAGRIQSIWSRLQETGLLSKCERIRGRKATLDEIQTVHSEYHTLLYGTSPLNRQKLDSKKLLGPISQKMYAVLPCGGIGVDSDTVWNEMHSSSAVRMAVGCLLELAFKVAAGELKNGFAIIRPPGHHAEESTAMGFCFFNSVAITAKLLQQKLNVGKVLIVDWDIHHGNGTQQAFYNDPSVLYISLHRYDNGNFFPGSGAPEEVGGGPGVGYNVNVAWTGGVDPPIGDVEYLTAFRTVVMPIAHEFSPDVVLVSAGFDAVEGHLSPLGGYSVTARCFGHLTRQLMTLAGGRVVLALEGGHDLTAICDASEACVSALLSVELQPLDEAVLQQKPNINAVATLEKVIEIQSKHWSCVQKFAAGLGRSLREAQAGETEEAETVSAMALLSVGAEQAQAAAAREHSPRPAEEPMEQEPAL
T1 sequence (Q13547 whole entry): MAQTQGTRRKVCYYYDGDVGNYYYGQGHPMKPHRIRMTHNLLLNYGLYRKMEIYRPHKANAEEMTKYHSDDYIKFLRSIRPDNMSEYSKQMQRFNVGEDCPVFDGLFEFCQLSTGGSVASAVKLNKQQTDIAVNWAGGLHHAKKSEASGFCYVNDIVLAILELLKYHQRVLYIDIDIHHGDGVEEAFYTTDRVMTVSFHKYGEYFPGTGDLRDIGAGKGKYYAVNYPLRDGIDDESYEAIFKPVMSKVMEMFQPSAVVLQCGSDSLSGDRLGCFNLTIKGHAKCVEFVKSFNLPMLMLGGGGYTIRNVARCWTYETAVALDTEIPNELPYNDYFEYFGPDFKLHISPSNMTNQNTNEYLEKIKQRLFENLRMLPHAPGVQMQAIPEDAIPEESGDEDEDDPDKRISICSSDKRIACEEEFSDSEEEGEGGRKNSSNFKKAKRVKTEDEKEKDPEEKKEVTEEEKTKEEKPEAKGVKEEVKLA
T3 sequence (Q92769 whole entry): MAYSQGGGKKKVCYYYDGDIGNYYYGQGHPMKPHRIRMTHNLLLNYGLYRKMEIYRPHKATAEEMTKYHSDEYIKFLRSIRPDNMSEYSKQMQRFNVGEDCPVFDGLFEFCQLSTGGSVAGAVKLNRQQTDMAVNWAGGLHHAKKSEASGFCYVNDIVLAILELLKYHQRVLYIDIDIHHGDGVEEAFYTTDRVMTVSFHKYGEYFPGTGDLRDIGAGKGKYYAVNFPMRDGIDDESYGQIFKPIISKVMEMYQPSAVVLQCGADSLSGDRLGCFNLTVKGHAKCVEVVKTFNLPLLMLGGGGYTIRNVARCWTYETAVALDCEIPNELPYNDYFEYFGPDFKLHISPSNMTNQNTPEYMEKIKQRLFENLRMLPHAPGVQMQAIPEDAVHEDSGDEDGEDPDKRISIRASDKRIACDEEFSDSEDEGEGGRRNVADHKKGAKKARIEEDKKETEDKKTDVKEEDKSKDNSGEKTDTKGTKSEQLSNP

Turning to `O=C(c1ccc(N(Cc2ccc(-c3noc(C(F)(F)F)n3)s2)c2cnccn2)nn1)N1C[C@@H]2C[C@H]1CO2` [Example FE, 6-[(1S,4S)-2-Oxa-5-azabicyclo[2.2.1]heptane-5-carbonyl]-N-(pyrazin-2-yl)-N-({5-[5-(trifluoromethyl)-1,2,4-oxadiazol-3-yl]thiophen-2-yl}methyl)pyridazin-3-amine], the IC50 is above 10000 nM on Human HDAC1; at most 10000 nM on Human HDAC8; above 10000 nM at Human HDAC2; at most 500 nM on Human HDAC5; at most 500 nM on Human HDAC7.
Turning to `O=C(c1ccc(N(Cc2ccc(-c3noc(C(F)(F)F)n3)s2)c2cnccn2)nn1)N1CCC1` [Example FF, 6-(Azetidine-1-carbonyl)-N-(pyrazin-2-yl)-N-({5-[5-(trifluoromethyl)-1,2,4-oxadiazol-3-yl]thiophen-2-yl}methyl)pyridazin-3-amine], the IC50 at Human HDAC1 was at most 10000 nM; at Human HDAC8 it was at most 10000 nM; at Human HDAC2 it was above 10000 nM; at Human HDAC5 it was at most 500 nM; on Human HDAC7, at most 500 nM.
On to `O=C(c1ccc(N(Cc2ccc(-c3noc(C(F)(F)F)n3)s2)c2cnccn2)nn1)N1CCCCC1` [Example FG, 6-(Piperidine-1-carbonyl)-N-(pyrazin-2-yl)-N-({5-[5-(trifluoromethyl)-1,2,4-oxadiazol-3-yl]thiophen-2-yl}methyl)pyridazin-3-amine], for which the IC50 on Human HDAC1 is above 10000 nM; on Human HDAC8, at most 10000 nM; on Human HDAC2, above 10000 nM; on Human HDAC5 it was at most 500 nM; at Human HDAC7 it was at most 500 nM.
With `O=C(c1ccc(N(Cc2ccc(-c3noc(C(F)(F)F)n3)s2)c2cnccn2)nn1)N1CCC12COC2` [Example FH, 6-{6-Oxa-1-azaspiro[3.3]heptane-1-carbonyl}-N-(pyrazin-2-yl)-N-({5-[5-(trifluoromethyl)-1,2,4-oxadiazol-3-yl]thiophen-2-yl}methyl)pyridazin-3-amine], the IC50 on Human HDAC1 is at most 10000 nM; at Human HDAC8 it was at most 10000 nM; at Human HDAC2, above 10000 nM; on Human HDAC5, at most 500 nM; on Human HDAC7 it was at most 500 nM.
Regarding `O=C(c1ccc(N(Cc2ccc(-c3noc(C(F)(F)F)n3)s2)c2cnccn2)nn1)N1CCCC1` [Example FI, N-(Pyrazin-2-yl)-6-(pyrrolidine-1-carbonyl)-N-({5-[5-(trifluoromethyl)-1,2,4-oxadiazol-3-yl]thiophen-2-yl}methyl)pyridazin-3-amine], the IC50 at Human HDAC1 was at most 10000 nM; at Human HDAC8, at most 1000 nM; at Human HDAC2, above 10000 nM; on Human HDAC5, at most 500 nM; on Human HDAC7, at most 500 nM.
`O=C(c1ccc(N(Cc2ccc(-c3noc(C(F)(F)F)n3)s2)c2cnccn2)nn1)N1CCC2(COC2)C1` [Example FJ, 6-{2-Oxa-6-azaspiro[3.4]octane-6-carbonyl}-N-(pyrazin-2-yl)-N-({5-[5-(trifluoromethyl)-1,2,4-oxadiazol-3-yl]thiophen-2-yl}methyl)pyridazin-3-amine]: the IC50 was at most 10000 nM at Human HDAC1; at most 10000 nM at Human HDAC8; above 10000 nM on Human HDAC2; at most 500 nM on Human HDAC5; at most 500 nM on Human HDAC7.
On to `O=C(c1ccc(N(Cc2ccc(-c3noc(C(F)(F)F)n3)s2)c2cnccn2)nn1)N1CC(O)(C(F)(F)F)C1` [Example FK, 1-{6-[(Pyrazin-2-yl)({5-[5-(trifluoromethyl)-1,2,4-oxadiazol-3-yl]thiophen-2-yl}methyl)amino]pyridazine-3-carbonyl}-3-(trifluoromethyl)azetidin-3-ol], for which the IC50 on Human HDAC1 is above 10000 nM; on Human HDAC8, at most 1000 nM; on Human HDAC2, above 10000 nM; on Human HDAC5, at most 500 nM; on Human HDAC7 it was at most 500 nM.
As to `Nc1cnnc(N(Cc2ccc(-c3noc(C(F)(F)F)n3)s2)c2cnccn2)c1` [Example FL, N3-(Pyrazin-2-yl)-N3-({5-[5-(trifluoromethyl)-1,2,4-oxadiazol-3-yl]thiophen-2-yl}methyl)pyridazine-3,5-diamine], the IC50 at Human HDAC1 was above 10000 nM; at Human HDAC8, at most 10000 nM; at Human HDAC2, above 10000 nM; at Human HDAC5 it was at most 500 nM; at Human HDAC7, at most 500 nM.
On to `CC(=O)Nc1cnnc(N(Cc2ccc(-c3noc(C(F)(F)F)n3)s2)c2cnccn2)c1` [Example FM, N-{6-[(Pyrazin-2-yl)({5-[5-(trifluoromethyl)-1,2,4-oxadiazol-3-yl]thiophen-2-yl}methyl)amino]pyridazin-4-yl}acetamide], for which the half-maximal inhibitory concentration (IC50) is at most 10000 nM on Human HDAC1; at most 10000 nM at Human HDAC8; above 10000 nM at Human HDAC2; at most 500 nM at Human HDAC5; at most 1000 nM on Human HDAC7.
`FC(F)(F)c1nc(-c2ccc(CN(c3cnccn3)c3ccc(CN4CCOCC4)nn3)s2)no1` [Example FN, 6-[(Morpholin-4-yl)methyl]-N-(pyrazin-2-yl)-N-({5-[5-(trifluoromethyl)-1,2,4-oxadiazol-3-yl]thiophen-2-yl}methyl)pyridazin-3-amine]: the IC50 was above 10000 nM on Human HDAC1; at most 10000 nM at Human HDAC8; above 10000 nM on Human HDAC2; at most 1000 nM at Human HDAC5; at most 1000 nM on Human HDAC7.
With `[O-][S+]1CCN(Cc2ccc(N(Cc3ccc(-c4noc(C(F)(F)F)n4)s3)c3cnccn3)nn2)CC1` [Example FO, 4-({6-[(Pyrazin-2-yl)({5-[5-(trifluoromethyl)-1,2,4-oxadiazol-3-yl]thiophen-2-yl}methyl)amino]pyridazin-3-yl}methyl)-1lambda4-thiomorpholin-1-one], the IC50 was above 10000 nM at Human HDAC1; at most 10000 nM at Human HDAC8; above 10000 nM on Human HDAC2; at most 1000 nM on Human HDAC5; at most 1000 nM on Human HDAC7.
For the compound `FC(F)(F)c1nc(-c2ccc(CN(c3cnccn3)c3cc(N4CCOCC4)cnn3)s2)no1` [Example FP, 5-(Morpholin-4-yl)-N-(pyrazin-2-yl)-N-({5-[5-(trifluoromethyl)-1,2,4-oxadiazol-3-yl]thiophen-2-yl}methyl)pyridazin-3-amine], the IC50 at Human HDAC1 is above 10000 nM; at Human HDAC8, at most 10000 nM; at Human HDAC2, above 10000 nM; at Human HDAC5, at most 500 nM; at Human HDAC7 it was at most 10000 nM.
Consider `FC(F)(F)c1nc(-c2ccc(CN(c3cnccn3)c3cc(N4CCCC4)cnn3)s2)no1` [Example FQ, N-(Pyrazin-2-yl)-5-(pyrrolidin-1-yl)-N-({5-[5-(trifluoromethyl)-1,2,4-oxadiazol-3-yl]thiophen-2-yl}methyl)pyridazin-3-amine], for which the IC50 was above 10000 nM at Human HDAC1; at most 10000 nM at Human HDAC8; above 10000 nM on Human HDAC2; at most 1000 nM on Human HDAC5; at most 10000 nM at Human HDAC7.

Values taken from patent US20210038607A1, “OXADIAZOLYLTHIOPHENE DERIVATIVES USEFUL AS HISTONE DEACETYLASE INHIBITORS” (Karus Therapeutics Limited, priority 2018, published 2021).
